# Assay results: patent EP4740933A1, “CLEANING COMPOSITION AND USE THEREOF” (Suzhou Oulit Biopharm Co., Ltd., priority 2023, dated 2025)
# “And” between values parts separate entries of the source, which are not always exact repeats. Equal entries are not always repeated. Where two headings read alike, the source gives them in different places.
# Assays:
# [1] = test system: Reconstructed Human Epidermis; test: In vitro skin irritation: reconstructed human epidermis test (OECD TG 439); assay type: cell-based; design: Viability Mean: concentration or dose not given beside the values
# Bovine Corneal = test: Eye irritation: Bovine Corneal Opacity and Permeability Test (OECD TG 437); settings: positive control, no test concentration printed (/)
# Source text: Basis: Bovine Corneal Opacity and Permeability Test, OECD TG 437 (2020).
# [2] = Foaming test, modified Ross-Miles method (GB/T7462-1994); assay type: physicochemical; settings: 2.5 g/L, 50 ± 0.5 °C
# Description: Conditions: test solution concentration: 2.5 g/L; test temperature: 50 ± 0.5 °C; test water: soft water/hard water.
Compound,IL-1α content [1] [pg/mL],Viability Mean [1] [%],Foam volume at 30 s ([2]; soft water) [mL],Foam volume at 3 min ([2]; soft water) [mL],Foam volume at 5 min ([2]; soft water) [mL],also measured
CCCCCCCCCCCC(=O)N[C@@H](C)C(=O)O.N=C(N)NCCC[C@H](N)C(=O)O [LA-Arg],3.5 ± 0.38,97.40,,,,
CCCCCCCCCCCC(=O)NC(C)C(=O)[O-].[Na+] (stereo not shown) [LA-NaOH],3.88 ± 5.28,86.99,,,,
"CCCCCCCCCCCC(=O)N[C@@H](C)C(=O)O [Lauroyl alanine (LA), Lauroyl alanine]",2.07 ± 0.59,95.52,,,,
CCCCCCCCCCCCOS(=O)(=O)[O-].[Na+] [Positive control (PC)],89.45 ± 10.06,4.03,,,,
"CCO [Positive control (absolute ethanol), absolute ethanol]",,,,,,In vitro irritancy score (IVIS) (Bovine Corneal): 32.3545
"CCCCCCCCCCCCOS(=O)(=O)[O-].[Na+] [Sodium dodecyl sulfate (K12), Sodium dodecyl sulfate]",96.26 ± 3.21,,,,,Viability Mean ([1]; human): 40.79%
Lauroyl alanine-arginine,,,380,340,335,Foam volume at 30 s ([2]; hard water): 570 mL and 580 mL; Foam volume at 3 min ([2]; hard water): 540 mL and 560 mL and 565 mL; Foam volume at 5 min ([2]; hard water): 530 mL and 545 mL and 550 mL
Sodium laureth sulfate [Sodium laureth sulfate (AES)],20.59 ± 5.27,57.12,310,250,210,
potassium cocoyl glycinate [GCK30],,,430,390,360,
sodium cocoyl alaninate [ACS30],,,330,200,140,
sodium cocoyl glycinate [GC30],,,460,430,400,
sodium cocoylmethyl taurate [CMT-35],,,310,260,230,
